The values that follow come from PubChem BioAssay (NCI).

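Interpolation was linear, between the two tested concentrations surrounding the appropriate level; five concentrations were tested over 48 hours in 96-well plates. Here, GI50 denotes the concentration required for 50% inhibition of growth. TGI: concentration producing complete growth inhibition.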

Among the test systems are K-562 leukemia; M14 melanoma; NCI-H226 lung; OVCAR-8 ovarian; SK-MEL-2 melanoma; SK-MEL-5 melanoma; SNB-19 CNS; SNB-75 CNS; T-47D breast; UO-31 renal.
Holding throughout (test): growth of human tumour cells (NCI), 48 h

In the case of `Cc1cc(S(=O)(=O)/N=C(/N)Nc2ccccc2O)c(SCc2ccccc2)cc1Cl`, the GI50 is 10.2 µM with K-562 leukemia; 15.3 µM in the assay with M14 melanoma; 33.1 µM in the assay with NCI-H226 lung; 12.9 µM in the assay with OVCAR-8 ovarian; 10.6 µM with SK-MEL-2 melanoma; 14.6 µM with SK-MEL-5 melanoma. For the same molecule, the GI50 in the assay with SNB-19 CNS is 16.6 µM; with SNB-75 CNS, 19.3 µM; in the assay with T-47D breast, 12.2 µM; in the assay on UO-31 renal, 6.99 µM. Further, the TGI in the assay with K-562 leukemia is greater than 100 µM; in the assay on M14 melanoma, 32.3 µM; in the assay with NCI-H226 lung, greater than 100 µM; in the assay on OVCAR-8 ovarian, 36 µM; in the assay with SK-MEL-2 melanoma, 26.2 µM; with SK-MEL-5 melanoma, 30.5 µM. Moreover, the TGI is 34 µM in the assay on SNB-19 CNS, 39.2 µM in the assay with SNB-75 CNS, 31.4 µM with T-47D breast and 25.7 µM with UO-31 renal.
Turning to `CN=c1ccc2nc3ccc(N)cc3sc-2c1`, the GI50 was 1.12 µM in the assay on K-562 leukemia; 2.04 µM in the assay with M14 melanoma; 15.2 µM with NCI-H226 lung; 1.45 µM in the assay with OVCAR-8 ovarian; 11 µM in the assay on SK-MEL-2 melanoma; 0.448 µM in the assay on SK-MEL-5 melanoma. The GI50 is 3.25 µM with SNB-19 CNS, 10.8 µM in the assay on SNB-75 CNS, 1.69 µM in the assay on T-47D breast and 4.56 µM in the assay with UO-31 renal. Further, the TGI with K-562 leukemia is 16.7 µM; in the assay with M14 melanoma, 10.8 µM; with NCI-H226 lung, 41.4 µM; in the assay on OVCAR-8 ovarian, 10.3 µM; in the assay with SK-MEL-2 melanoma, 30.9 µM; in the assay with SK-MEL-5 melanoma, 1.88 µM. Besides, the TGI in the assay with SNB-19 CNS is greater than 100 µM; in the assay on SNB-75 CNS, 28.7 µM; in the assay on T-47D breast, 13.2 µM; in the assay with UO-31 renal, 21.2 µM.
As for `Fc1ccc(/C=N/n2c(-c3ccc(F)c(Cl)c3)nn(CNc3ccccc3C(F)(F)F)c2=S)cc1`, the GI50 in the assay with K-562 leukemia is 37.6 µM; in the assay on M14 melanoma, 43.1 µM; in the assay with NCI-H226 lung, 69.5 µM; in the assay on OVCAR-8 ovarian it was 43.1 µM; in the assay with SK-MEL-2 melanoma it was 46.6 µM; in the assay on SK-MEL-5 melanoma, 33 µM. In addition, the GI50 in the assay with SNB-19 CNS was greater than 100 µM; in the assay with SNB-75 CNS it was greater than 100 µM; in the assay on T-47D breast it was 41.3 µM; in the assay with UO-31 renal, 34.8 µM. The TGI in the assay with K-562 leukemia, in the assay on M14 melanoma, in the assay on NCI-H226 lung, with OVCAR-8 ovarian, with SK-MEL-2 melanoma and in the assay with SK-MEL-5 melanoma was greater than 100 µM each time. The TGI with SNB-19 CNS, in the assay on SNB-75 CNS, with T-47D breast and in the assay with UO-31 renal was greater than 100 µM each time.
Turning to `O=[N+]([O-])c1ccc(C=Cc2ccccc2)cc1.[C-]#[O+].[C-]#[O+].[C-]#[O+].[Cr]`, the GI50 with K-562 leukemia is 8.61 µM; with M14 melanoma, 7.58 µM; in the assay on NCI-H226 lung, 27.8 µM; in the assay on OVCAR-8 ovarian, 9.77 µM; in the assay with SK-MEL-2 melanoma, 57.7 µM; in the assay on SK-MEL-5 melanoma it was 4.68 µM. Also, the GI50 in the assay on SNB-19 CNS was greater than 100 µM; in the assay with SNB-75 CNS it was 4.46 µM; with T-47D breast it was 4.19 µM; with UO-31 renal it was 6.3 µM. For the same molecule, the TGI was greater than 100 µM with K-562 leukemia; greater than 100 µM in the assay with M14 melanoma; greater than 100 µM in the assay on NCI-H226 lung; greater than 100 µM in the assay on OVCAR-8 ovarian; greater than 100 µM in the assay on SK-MEL-2 melanoma; 29.2 µM in the assay on SK-MEL-5 melanoma. Also, the TGI in the assay on SNB-19 CNS is greater than 100 µM; in the assay with SNB-75 CNS, 37.8 µM; in the assay on T-47D breast it was greater than 100 µM; in the assay on UO-31 renal, greater than 100 µM.
Consider `C[C@@H]1CN(Cc2ccc(F)cc2)[C@@H](C)CN1C(=O)c1cc2c(C(=O)C(=O)N(C)C)cn(C)c2cc1Cl`, for which the GI50 with K-562 leukemia was 20.8 µM; in the assay with M14 melanoma, 13.4 µM; in the assay on NCI-H226 lung, 12.2 µM; in the assay with OVCAR-8 ovarian, 17.6 µM; in the assay with SK-MEL-2 melanoma, 17 µM; in the assay on SK-MEL-5 melanoma, 13.1 µM. The GI50 is 17.4 µM with SNB-19 CNS, 8.35 µM with SNB-75 CNS, 5.97 µM in the assay with T-47D breast and 15.3 µM with UO-31 renal. Besides, the TGI in the assay with K-562 leukemia was 88.6 µM; in the assay on M14 melanoma it was 36.6 µM; in the assay with NCI-H226 lung, 31.1 µM; in the assay with OVCAR-8 ovarian, 48.8 µM; in the assay on SK-MEL-2 melanoma, 36.3 µM; in the assay with SK-MEL-5 melanoma, 26 µM. Further, the TGI in the assay with SNB-19 CNS is 64.1 µM; in the assay on SNB-75 CNS it was 27.9 µM; in the assay on T-47D breast it was 65.6 µM; in the assay on UO-31 renal it was greater than 81.9 µM.
`CNCCCNCCCCNCCCN1C(=O)c2ccc3c4c(ccc(c24)C1=O)C(=O)N(CCCNCc1ccccc1OC)C3=O`: the GI50 is 2.78 µM in the assay on K-562 leukemia; 2.63 µM in the assay on M14 melanoma; 2.17 µM in the assay on NCI-H226 lung; 2.89 µM with OVCAR-8 ovarian; 4.46 µM in the assay with SK-MEL-2 melanoma; 0.813 µM with SK-MEL-5 melanoma. For the same molecule, the GI50 in the assay on SNB-19 CNS is 3.79 µM; with SNB-75 CNS, 1.05 µM; in the assay with T-47D breast it was 0.342 µM; in the assay with UO-31 renal, 4.31 µM. Further, the TGI with K-562 leukemia turned out to be 34.6 µM; in the assay on M14 melanoma, 13.3 µM; in the assay on NCI-H226 lung, 21.3 µM; with OVCAR-8 ovarian it was 54.6 µM; with SK-MEL-2 melanoma, 18.8 µM; in the assay on SK-MEL-5 melanoma, 3 µM. The TGI with SNB-19 CNS worked out at 17.2 µM; in the assay on SNB-75 CNS it was 13.3 µM; in the assay on T-47D breast, 5.97 µM; in the assay on UO-31 renal, 36.8 µM.
Take `NNC(=O)CS(=O)(=O)Nc1ncccn1`: the TGI in the assay on K-562 leukemia, in the assay with M14 melanoma, with NCI-H226 lung, in the assay with OVCAR-8 ovarian, with SK-MEL-2 melanoma and with SK-MEL-5 melanoma was greater than 100 µM each time. For the same molecule, the TGI in the assay on SNB-19 CNS, in the assay with SNB-75 CNS, in the assay with T-47D breast and in the assay on UO-31 renal was greater than 100 µM throughout.
As to `c1cnn2ncc(-c3ccnc(NCCCN4CCOCC4)n3)c2c1`, the GI50 in the assay on K-562 leukemia was greater than 22.4 µM; in the assay with M14 melanoma, 8.63 µM; with NCI-H226 lung, 3.79 µM; with OVCAR-8 ovarian it was 7.03 µM; in the assay with SK-MEL-2 melanoma it was 5.12 µM; in the assay on SK-MEL-5 melanoma, 3.63 µM. Moreover, the GI50 was 8.35 µM in the assay on SNB-19 CNS, 5.52 µM with SNB-75 CNS, 5.93 µM in the assay on T-47D breast and 5.23 µM in the assay on UO-31 renal. Besides, the TGI is greater than 25 µM with K-562 leukemia; greater than 25 µM in the assay with M14 melanoma; greater than 16.8 µM with NCI-H226 lung; greater than 25 µM with OVCAR-8 ovarian; 13.9 µM with SK-MEL-2 melanoma; 9.7 µM in the assay with SK-MEL-5 melanoma. The TGI was greater than 25 µM in the assay on SNB-19 CNS, 12.7 µM in the assay on SNB-75 CNS, greater than 21.3 µM with T-47D breast and 21 µM with UO-31 renal.
